Source: patent publication US10858342B2, “Bicyclic imidazole derivatives useful for the treatment of renal diseases, cardiovascular diseases and fibrotic diseases” (Boehringer Ingelheim International GmbH, priority 2016, dated 2020)
Where two headings read alike, the source gives them in different places.

Key:
Assay type in all cases: biochemical, cynomolgus monkey
[1] = biological target: aldosterone synthase (CYP11B2) (Macaca fascicularis, UniProt A0A2K5UPL9); test: Inhibition of aldosterone synthase (cynomolgus adrenal mitochondria, aldosterone by mass spectrometry); conditions: 2 μM corticosterone substrate, 50 units CYP11B2, 90 min, 37° C.; read-out: Aldosterone Inhibition IC50
Protocol: (§1) The aldosterone synthase and cortisol synthase inhibition assays employ cynomolgus adrenal gland mitochondria as the source of aldosterone synthase (CYP11B2) and cortisol synthase (CYP11B1). […] One unit of CYP11B2 and CYP11B1 activity in these preparations is defined as the amount of enzyme that generates 1 pmol of product in one hour under the conditions described.
(§2) The compounds of the invention may be evaluated for aldosterone synthase inhibition by the following assay:
(§3) Assays are performed in 96-well format in a final volume of 60 microL/well, containing 100 mM potassium phosphate, pH 7.4, 1% (v/v) DMSO, and additionally, 2 μM of corticosterone and 50 units of CYP11B2 activity. Reactions are started by the addition of NADPH to 1 mM and allowed to proceed for 90 minutes at 37° C. Reactions are terminated by the addition of 60 μL of MeCN containing an internal standard for mass spectrometry. One hundred microliters are then transferred to a glass filter plate and centrifuged at 570×g for 5 minutes and the filtrate is collected. Reaction product aldosterone is quantified by mass spectrometry. To determine the assay blank value (0% activity), NADPH is omitted from some reactions.
(§4) Dose dependent inhibition is quantified by the inclusion of compound at various concentrations. Maximum activity (100%) is defined by reactions containing NADPH, but without compound.

[2] = test system: aldosterone synthase (CYP11B2); test: as above; conditions: selectivity for aldosterone synthase inhibition over cortisol synthase (CYP11B1) inhibition, fold
Protocol: as §1, §2, §3, §4

[3] = biological target: cortisol synthase (CYP11B1) (Macaca fascicularis, UniProt A0A2K5ULY1); test: Inhibition of cortisol synthesis (cynomolgus adrenal mitochondria, cortisol by mass spectrometry)
Protocol: The aldosterone synthase and cortisol synthase inhibition assays employ cynomolgus adrenal gland mitochondria as the source of aldosterone synthase (CYP11B2) and cortisol synthase (CYP11B1). Mitochondria are prepared from frozen cynomolgus monkey adrenal glands according to Method A described in by J. D. McGarry et al. (Biochem. J., 1983, 214, 21-28), with a final resuspension in the AT buffer described in R. Yamaguchi et al. (Cell Death and Differentiation, 2007, 14, 616-624), frozen as aliquots in liquid nitrogen and stored at −80° C. until use. One unit of CYP11B2 and CYP11B1 activity in these preparations is defined as the amount of enzyme that generates 1 pmol of product in one hour under the conditions described.
as §3
Dose dependent inhibition is quantified by the inclusion of compound at various concentrations. Maximum activity (100%) is defined by reactions containing NADPH, but without compound. Activities at each concentration are expressed as a percentage of the maximum activity (y-axis) and plotted against concentration of compound (x-axis) and the concentration corresponding to 50% activity (IC50) determined using the XLFit curve-fitting program using a 4-parameter logistic model.
Assays are performed as for aldosterone synthase except for the use of 150 units of CYP11B1, 11-deoxycortisol as substrate and cortisol measured as product.

[4] = 11-deoxycortisol substrate, 150 units CYP11B1; read-out: Cortisol Inhibition IC50

Chain of aldosterone synthase (CYP11B2) (Macaca fascicularis, UniProt A0A2K5UPL9) (A0A2K5UPL9 1-503): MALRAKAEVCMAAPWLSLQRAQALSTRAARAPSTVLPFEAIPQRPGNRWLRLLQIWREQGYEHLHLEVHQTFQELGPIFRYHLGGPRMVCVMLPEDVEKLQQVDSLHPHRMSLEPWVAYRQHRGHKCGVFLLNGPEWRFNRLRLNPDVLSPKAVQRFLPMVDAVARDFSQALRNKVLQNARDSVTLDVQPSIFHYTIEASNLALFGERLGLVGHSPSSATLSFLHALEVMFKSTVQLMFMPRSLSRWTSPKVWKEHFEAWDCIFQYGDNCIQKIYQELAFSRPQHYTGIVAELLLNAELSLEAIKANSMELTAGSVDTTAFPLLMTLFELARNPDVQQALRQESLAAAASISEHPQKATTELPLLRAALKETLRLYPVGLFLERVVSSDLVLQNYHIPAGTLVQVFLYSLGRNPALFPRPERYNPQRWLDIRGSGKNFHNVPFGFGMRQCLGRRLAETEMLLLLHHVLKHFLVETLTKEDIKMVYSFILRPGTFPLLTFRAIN

Molecule	IC50 [1] [µM]	Selectivity [2]	IC50 [3, 4] [µM]	IC50 ([3]; read-out: Cortisol Inhibition IC50; 11-deoxycortisol substrate, 150 units CYP11B1) [µM]
N#Cc1ccc(-n2cnc3c2C(=O)CC2(CCC2)C3)cc1 [C-AAT, 4-(7-Oxospiro[4,6-dihydrobenzimidazole-5,1′-cyclobutan]-1-yl)benzonitrile]	0.0038	130	0.48	
CNC(=O)[C@H]1CC(=O)c2c(ncn2-c2ccc(C#N)c(Cl)c2)C1 [C-AEH, (R)-1-(3-Chloro-4-cyano-phenyl)-7-oxo-4,5,6,7-tetrahydro-1H-benzoimidazole-5-carboxylic acid methylamide]	0.057	526		> 30
O=C1CCCc2ncn(-c3ccc4c(c3)OCCCO4)c21 [C-AAJ, 3-(3,4-Dihydro-2H-benzo[b][1,4]dioxepin-7-yl)-3,5,6,7-tetrahydro-benzoimidazol-4-one]	0.44	67	> 30	
CC1(C)CC(=O)c2c(ncn2-c2ccc(Cl)nc2)C1 [C-ABT, 3-(6-Chloro-pyridin-3-yl)-6,6-dimethyl-3,5,6,7-tetrahydro-benzoimidazol-4-one]	0.23	30	6.9	
CC1(C)CC(=O)c2c(ncn2Cc2ccc(C(=O)NCCS(C)(=O)=O)cc2)C1 [C-ADU, 4-(5,5-Dimethyl-7-oxo-4,5,6,7-tetrahydro-benzoimidazol-1-ylmethyl)-N-(2-methanesulfonyl-ethyl)-benzamide]	0.21	30	6.2	
CC1(C)CC(=O)c2c(ncn2CC2CCCCC2)C1 [C-ACP, 3-Cyclohexylmethyl-6,6-dimethyl-3,5,6,7-tetrahydro-benzoimidazol-4-one]	0.024	240	5.9	
CN(CCO)C(=O)c1ccc(Cn2cnc3c2C(=O)CC(C)(C)C3)cc1 [C-ADS, 4-(5,5-Dimethyl-7-oxo-4,5,6,7-tetrahydro-benzoimidazol-1-ylmethyl)-N-(2-hydroxy-ethyl)-N-methyl-benzamide]	0.29	150	43	
CN1Cc2cc(-n3cnc4c3C(=O)CCC4)ccc2CC1=O [C-AAC, 2-Methyl-7-(7-oxo-4,5,6,7-tetrahydro-benzoimidazol-1-yl)-1,4-dihydro-2H-isoquinolin-3-one]	0.72	42	> 30	
COC(=O)c1ccc(-n2cnc3c2C(=O)CC(C)(C)C3)cc1 [C-ABW, 4-(5,5-Dimethyl-7-oxo-4,5,6,7-tetrahydro-benzoimidazol-1-yl)-benzoic acid methyl ester]	0.31	24	7.5	
3-(4-Cyanophenyl)-6,6-(3-tetrahydrofuran)-3,5,6,7-benzimidiazolo-4-one [C-ABA-B]	0.016	53	0.85	
Cc1cc(-n2cnc3c2C(=O)CC2(CCC2)C3)ccc1C#N [C-AAU, 2-Methyl-4-(7-oxospiro[4,6-dihydrobenzimidazole-5,1′-cyclobutan]-1-yl)benzonitrile]	0.01	5.0	0.051	
CC1(C)CC(=O)c2c(ncn2-c2ccc(F)c(F)c2)C1 [C-ABC, 3-(3,4-Difluoro-phenyl)-6,6-dimethyl-3,5,6,7-tetrahydro-benzimidazol-4-one]	0.01	63	0.65	
CN1C(=O)CCc2cc(-n3cnc4c3C(=O)CCC4)cnc21 [C-AAD, 1-Methyl-6-(7-oxo-4,5,6,7-tetrahydro-benzoimidazol-1-yl)-3,4-dihydro-1H-[1,8]naphthyridin-2-one]	0.15	200	> 30	
COC(=O)c1ccc(Cn2cnc3c2C(=O)CC(C)(C)C3)cc1 [C-ACZ, 4-(5,5-Dimethyl-7-oxo-4,5,6,7-tetrahydro-benzoimidazol-1-ylmethyl)-benzoic acid methyl ester]	0.034	41	1.4	
CC1(C)CC(=O)c2c(ncn2-c2ccc(F)c(Cl)c2)C1 [C-ABI, 3-(3-Chloro-4-fluoro-phenyl)-6,6-dimethyl-3,5,6,7-tetrahydro-benzoimidazol-4-one]	0.0048	190	0.91	
Cc1nnsc1Cn1cnc2c1C(=O)CC(C)(C)C2 [C-ADC, 6,6-Dimethyl-3-(4-methyl-[1,2,3]thiadiazol-5-ylmethyl)-3,5,6,7-tetrahydro-benzoimidazol-4-one]	0.25	180	45	
Cn1c(=O)oc2cc(-n3cnc4c3C(=O)CCC4)ccc21 [C-AAM, 3-Methyl-6-(7-oxo-4,5,6,7-tetrahydro-benzoimidazol-1-yl)-3H-benzooxazol-2-one]	0.12	240	> 30	
N#Cc1ccc(-n2cnc3c2C(=O)CC2(CC2)C3)cc1 [C-AAX, 3-(4-Cyanophenyl)-6,6-spirocyclpropyl-3,5,6,7-tetrahydro-benzimidazol-4-one]	0.0085	230	1.9	
CC1(C)CC(=O)c2c(ncn2-c2ccc(F)cc2)C1 [C-ABP, 3-(4-Fluoro-phenyl)-6,6-dimethyl-3,5,6,7-tetrahydro-benzoimidazol-4-one]	0.021	52	1.1	
CC1(C)CC(=O)c2c(ncn2-c2ccc(Cl)cc2)C1 [C-ABN, 3-(4-Chloro-phenyl)-6,6-dimethyl-3,5,6,7-tetrahydro-benzoimidazol-4-one]	0.015	67	1	
CC(C)Oc1ccc(-n2cnc3c2C(=O)CC(C)(C)C3)cc1Cl [C-ABJ, 3-(3-Chloro-4-isopropoxy-phenyl)-6,6-dimethyl-3,5,6,7-tetrahydro-benzoimidazol-4-one]	0.075	1300	95	
O=C1CCCc2ncn(C3CCc4ccccc4C3)c21 (stereo not drawn) [C-ADJ, 3-(1,2,3,4-Tetrahydro-naphthalen-2-yl)-3,5,6,7-tetrahydro-benzoimidazol-4-one]	0.0028	420	1.2	
CN(C)c1ccc(-n2cnc3c2C(=O)CC(C)(C)C3)cc1 [C-ABO, 3-(4-Dimethylamino-phenyl)-6,6-dimethyl-3,5,6,7-tetrahydro-benzoimidazol-4-one]	0.13	270	35	
CC1(C)CC(=O)c2c(ncn2-c2ccccc2)C1 [C-ACA, 6,6-Dimethyl-3-phenyl-3,5,6,7-tetrahydro-benzoimidazol-4-one]	0.25	46	12	
Cn1ncc2c1CC(n1cnc3c1C(=O)CCC3)CC2 (stereo not drawn) [C-AEF, 3-(1-Methyl-4,5,6,7-tetrahydro-1H-indazol-6-yl)-3,5,6,7-tetrahydro-benzoimidazol-4-one]	0.19	160	> 30	
CC1(C)CC(=O)c2c(ncn2-c2ccc3c(c2)OCO3)C1 [C-ABU, 3-Benzo[1,3]dioxol-5-yl-6,6-dimethyl-3,5,6,7-tetrahydro-benzoimidazol-4-one]	0.034	120	4.2	
CN1C(=O)CCc2cc(-n3cnc4c3C(=O)CC3(CCC3)C4)ccc21 [C-AAV, 3-(1-Methyl-2-oxo-3,4-dihydroquinolin-6-yl)spiro[5,7-dihydrobenzimidazole-6,1′-cyclobutane]-4-one]	0.047	300	14	
C[C@@H]1Cc2cc(-n3cnc4c3C(=O)CCC4)ccc2O1 (stereo in doubt) [C-AAZ-A, 3-(2-Methyl-2,3-dihydro-benzofuran-5-yl)-3,5,6,7-tetrahydro-benzoimidazol-4-one]	0.3	100	> 30	
CC1(C)CC(=O)c2c(ncn2C2CCc3ccccc3C2)C1 (stereo not drawn) [C-ADH, 6,6-Dimethyl-3-(1,2,3,4-tetrahydro-naphthalen-2-yl)-3,5,6,7-tetrahydro-benzoimidazol-4-one]	0.01	2900	29	
